Experimental data taken from the supplement of paper PMC11451515.

Columns and labels:
Settings in all cases: 48 h
SEM cells [1] = test: cell viability relative to DMSO control; higher = less cytotoxic
Procedure, shortened: (§1)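 Viability was expressed as a per-plate percentage of DMSO wells, with cell-free wells as background. Leukemia cells (NOMO1 or SEM at 500 cells/well, P12-Ichikawa at 1000 cells/well) were adapted for at least four passages in each medium and seeded in 1536-well plates (5 μl). Library compounds in DMSO were pin-dosed over an 11-point threefold series from 47 μM to 0.79 nM, and CellTiter-Glo One luminescence was read after 48 h at 37°C.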

NOMO1 [2] = test: as above
Procedure, shortened: as §1

P12-Ichikawa [3] = test: as above
Procedure, shortened: as §1

SEM cells [4] = test: AUC of viability dose-response curve (% viability x log10 dose units); higher = less sensitive
Procedure, shortened: (§2)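 Viability of medium-adapted leukemia cells was measured by CellTiter-Glo One luminescence after 48 h at 37°C with library compounds in DMSO. Doses were 11 threefold steps from 47 μM to 0.79 nM, in 1536-well plates at 500 or 1000 cells/well. Signals were normalised per plate to DMSO and cell-free wells and fitted with a four-parameter log-logistic model on log10 dose. Area under the curve was integrated by trapezoidal rule, with curves exceeding full viability scaled and failed quality-control curves removed.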

NOMO1 [5] = test: as above
Procedure, shortened: as §2

P12-Ichikawa [6] = test: as above
Procedure, shortened: as §2

CN[C@@H]1[C@H](O)[C@H](NC)[C@H]2O[C@@]3(O)C(=O)C[C@@H](C)O[C@H]3O[C@@H]2[C@H]1O
cell viability [%]
Settings	NOMO1 [2]	P12-Ichikawa [3]	SEM cells [1]
HPLM + 10% dialyzed FBS, 0.000781 µM	123	118	119
HPLM + 10% dialyzed FBS, 0.00234 µM	135	117	125
HPLM + 10% dialyzed FBS, 0.00702 µM	117	124	122
HPLM + 10% dialyzed FBS, 0.0211 µM	113	115	123
HPLM + 10% dialyzed FBS, 0.0632 µM	124	118	121
HPLM + 10% dialyzed FBS, 0.19 µM	127	116	120
HPLM + 10% dialyzed FBS, 0.569 µM	128	114	118
HPLM + 10% dialyzed FBS, 1.71 µM	121	111	122
HPLM + 10% dialyzed FBS, 5.12 µM	103	114	113
HPLM + 10% dialyzed FBS, 15.4 µM	87.4	101	115
HPLM + 10% dialyzed FBS, 46.1 µM	42.6	98.4	109
RPMI 5 mM glucose + 10% FBS, 0.000781 µM	–	109	120
RPMI 5 mM glucose + 10% FBS, 0.00234 µM	–	117	110
RPMI 5 mM glucose + 10% FBS, 0.00702 µM	–	126	126
RPMI 5 mM glucose + 10% FBS, 0.0211 µM	–	120	117
RPMI 5 mM glucose + 10% FBS, 0.0632 µM	–	117	115
RPMI 5 mM glucose + 10% FBS, 0.19 µM	–	113	113
RPMI 5 mM glucose + 10% FBS, 0.569 µM	–	105	123
RPMI 5 mM glucose + 10% FBS, 1.71 µM	–	106	110
RPMI 5 mM glucose + 10% FBS, 5.12 µM	–	106	104
RPMI 5 mM glucose + 10% FBS, 15.4 µM	–	105	104
RPMI 5 mM glucose + 10% FBS, 46.1 µM	–	97.5	104
RPMI 5 mM glucose + 10% dialyzed FBS, 0.000781 µM	110	122	–
RPMI 5 mM glucose + 10% dialyzed FBS, 0.00234 µM	115	121	–
RPMI 5 mM glucose + 10% dialyzed FBS, 0.00702 µM	115	115	–
RPMI 5 mM glucose + 10% dialyzed FBS, 0.0211 µM	119	116	–
RPMI 5 mM glucose + 10% dialyzed FBS, 0.0632 µM	122	106	–
RPMI 5 mM glucose + 10% dialyzed FBS, 0.19 µM	121	116	–
RPMI 5 mM glucose + 10% dialyzed FBS, 0.569 µM	113	117	–
RPMI 5 mM glucose + 10% dialyzed FBS, 1.71 µM	114	106	–
RPMI 5 mM glucose + 10% dialyzed FBS, 5.12 µM	119	114	–
RPMI 5 mM glucose + 10% dialyzed FBS, 15.4 µM	103	107	–
RPMI 5 mM glucose + 10% dialyzed FBS, 46.1 µM	91.4	101	–

AUC of viability dose-response curve
Settings	NOMO1 [5]	P12-Ichikawa [6]	SEM cells [4]
HPLM + 10% dialyzed FBS	438	457	465
RPMI 5 mM glucose + 10% FBS	424	450	445
RPMI 5 mM glucose + 10% dialyzed FBS	467	446	458

C/C=C(/C)C(=O)O[C@H]1C(C)=C[C@]23C(=O)[C@@H](C=C(CO)[C@@H](O)[C@]12O)[C@H]1[C@@H](C[C@H]3C)C1(C)C
cell viability [%]
Settings	NOMO1 [2]	P12-Ichikawa [3]	SEM cells [1]
HPLM + 10% dialyzed FBS, 0.000781 µM	119	111	93.9
HPLM + 10% dialyzed FBS, 0.00234 µM	127	122	121
HPLM + 10% dialyzed FBS, 0.00702 µM	114	106	87.5
HPLM + 10% dialyzed FBS, 0.0211 µM	112	99.1	90
HPLM + 10% dialyzed FBS, 0.0632 µM	93.5	96.8	92.4
HPLM + 10% dialyzed FBS, 0.19 µM	69	90.6	82.1
HPLM + 10% dialyzed FBS, 0.569 µM	66.4	87	72
HPLM + 10% dialyzed FBS, 1.71 µM	64.7	97.2	92.5
HPLM + 10% dialyzed FBS, 5.12 µM	60.6	97.3	87.7
HPLM + 10% dialyzed FBS, 15.4 µM	61.5	79.7	70.3
HPLM + 10% dialyzed FBS, 46.1 µM	39.3	81.4	54.9
RPMI 5 mM glucose + 10% FBS, 0.000781 µM	121	122	120
RPMI 5 mM glucose + 10% FBS, 0.00234 µM	128	131	114
RPMI 5 mM glucose + 10% FBS, 0.00702 µM	121	99.8	101
RPMI 5 mM glucose + 10% FBS, 0.0211 µM	108	87.9	102
RPMI 5 mM glucose + 10% FBS, 0.0632 µM	96	79.7	100
RPMI 5 mM glucose + 10% FBS, 0.19 µM	79.1	79.2	71.9
RPMI 5 mM glucose + 10% FBS, 0.569 µM	67.8	82.3	66.9
RPMI 5 mM glucose + 10% FBS, 1.71 µM	65.9	82.4	79.9
RPMI 5 mM glucose + 10% FBS, 5.12 µM	66.3	78.2	82.6
RPMI 5 mM glucose + 10% FBS, 15.4 µM	69.4	77.8	72.7
RPMI 5 mM glucose + 10% FBS, 46.1 µM	51.7	74.9	43.8
RPMI 5 mM glucose + 10% dialyzed FBS, 0.000781 µM	–	116	115
RPMI 5 mM glucose + 10% dialyzed FBS, 0.00234 µM	–	122	135
RPMI 5 mM glucose + 10% dialyzed FBS, 0.00702 µM	–	101	101
RPMI 5 mM glucose + 10% dialyzed FBS, 0.0211 µM	–	94.6	107
RPMI 5 mM glucose + 10% dialyzed FBS, 0.0632 µM	–	89.9	113
RPMI 5 mM glucose + 10% dialyzed FBS, 0.19 µM	–	81.6	93.7
RPMI 5 mM glucose + 10% dialyzed FBS, 0.569 µM	–	79	104
RPMI 5 mM glucose + 10% dialyzed FBS, 1.71 µM	–	82.6	100
RPMI 5 mM glucose + 10% dialyzed FBS, 5.12 µM	–	86.7	91.5
RPMI 5 mM glucose + 10% dialyzed FBS, 15.4 µM	–	81.1	82.4
RPMI 5 mM glucose + 10% dialyzed FBS, 46.1 µM	–	70.6	42.6

AUC of viability dose-response curve
Settings	NOMO1 [5]	P12-Ichikawa [6]	SEM cells [4]
HPLM + 10% dialyzed FBS	324	397	392
RPMI 5 mM glucose + 10% FBS	336	336	349
RPMI 5 mM glucose + 10% dialyzed FBS	314	361	431
